The source of these data is ChEMBL document CHEMBL3507680, “University of Dundee, Gates Library screen for HepG2 cell viability”.

The nature of this series: Human HepG2 cell viability assay in 384 well format. The format is toxicity, cell-based. On the set-up: dose 125 nL, time 70.5 hour; cytotoxicity at 70.5 h: concentration not given beside the values. To be noted: HepG2 cells, read-out: Inhibition.

Take `CCC1=NN2C(=N)/C(=C\c3cccn3-c3cccc(Cl)c3)C(=O)N=C2S1`: the cytotoxicity at 70.5 h was -0.175%. The result for `O=c1c2ccccc2nc2n1CCC2O` (centres undefined) reads -12.8%; that for `CC[C@H]1CN2CC[C@H]1C[C@@H]2CNCc1ccc(OC)cc1`, -3.31%.

Consider `CN1CCC(N2C[C@H](O)C[C@H]2c2nc(Cc3ccccc3)no2)CC1`, for which the cytotoxicity at 70.5 h was -7.37%. As for `CC(C)(C)NC(=O)C[C@@H]1CCNC[C@@H]1Cc1cc(C(C)(C)C)on1`, the figure is -1.48%.

With `Cc1ccc(-c2noc([C@@H]3C[C@H](NC(=O)NC(C)C)CN3C)n2)cc1`, the cytotoxicity at 70.5 h was -7.56%. As for `CN1CCN(CC[C@@H]2CC[C@H](O)[C@@H](C(=O)Nc3ccccc3)O2)CC1`, the figure is 1.15%; as for `O=C1N[C@@H]2CCN(C(=O)C3CC3)[C@@H]2C(=O)N1c1ccccc1`, -10.7%. As to `COc1ccccc1-c1nnc([C@H]2CCN(C(C)=O)C2)o1`, the cytotoxicity at 70.5 h was -6.37%. On to `c1cc(-c2nnc([C@H]3CCNC3)o2)ccn1`, for which the cytotoxicity at 70.5 h is -2.31%. The result for `CN1C(=O)CO[C@H]2CN(C(=O)Nc3ccc(F)cc3)C[C@H]21` reads -7.97%; that for `Fc1ccc2nc([C@H]3CCNC3)[nH]c2c1`, -0.112%; that for `CC(C)NC(=O)N1CCN2C(=O)OC[C@H]2C1`, 10.9%. As for `F[C@@H]1CN(CC2CC2)C[C@@H]1OCc1nc2ncccc2[nH]1`, the figure is -3.03%; as for `O=C1NC[C@H]2CN(C3CCOCC3)CCN12`, -4.38%. The result for `CC1=C[C@@H](CN2CCCC2)[C@H](C(C)C)C[C@H]1Cc1nnc(C)o1` reads -4.38%; that for `COCC(=O)NC[C@H]1C[C@@H]2CCN1C[C@@H]2CN1CCc2ccccc2C1`, -12.4%. Regarding `CC1=C[C@@H](CN2CCOCC2)[C@H](C(C)C)C[C@H]1Cc1nnc(C)o1`, the cytotoxicity at 70.5 h is -5.39%. As for `COC(=O)c1cccc2nc([C@H]3CCN(Cc4ccccc4)C3)oc12`, the figure is -11.8%; as for `CN1CCC[C@H]1c1nc(-c2cncnc2N)no1`, -7.81%; as for `Nc1ncncc1-c1noc([C@@H]2CCCN2CC2CC2)n1`, 9.61%. The result for `Cc1ccc(S(=O)(=O)NC[C@H]2OC[C@@H](NCc3cccnc3)[C@@H]2O)cc1` reads -7.82%; that for `Cn1cncc1-c1nnc([C@H]2CCN(C3CCOCC3)C2)o1`, -3.04%; that for `CN1C[C@@H](F)[C@@H](OCc2nc3ccccc3[nH]2)C1`, -5.45%.

Consider `CC(C)NC(=O)NC[C@H]1OC[C@@H](NCc2ccc(F)cc2)[C@@H]1O`, for which the cytotoxicity at 70.5 h is -4.37%. As for `CC(C)(C)c1cc(C[C@H]2CNCC[C@H]2CC(=O)Nc2ccccc2)no1`, the figure is -2.1%. As for `CC(C)NC[C@H]1COCc2nc3cccnc3n21`, the figure is -8.17%; as for `CS(=O)(=O)N1CC[C@H](c2nc3ccc(C(F)(F)F)cc3[nH]2)C1`, -4.96%; as for `FC(F)(F)Oc1ccc(-c2noc([C@@H]3Cc4nc[nH]c4CN3)n2)cc1`, -4.51%. The result for `CN1CCC(N2CC[C@H](c3nc4ccc(C(F)(F)F)cc4[nH]3)C2)CC1` reads -13.2%; that for `O=C1CO[C@H]2CN(C3CCOCC3)C[C@H]2N1Cc1ccccn1`, 1.72%.

For the compound `COCc1ccc(CN[C@H]2C[C@@H](Cc3cc(CCO)on3)C2(C)C)o1`, the cytotoxicity at 70.5 h is -1.61%. The result for `COc1ccc(-c2noc([C@@H]3C[C@@H](O)CN3C3CCOCC3)n2)cc1` reads 41.8%; that for `CC(C)C[C@@H]1N[C@H](C(=O)NC2CCOCC2)Cc2c[nH]c3cccc1c23`, -4.79%. The result for `CN1C(=O)CO[C@H](c2ccc(NC(=O)c3cccc(F)c3)cc2)[C@H]1CO` reads -0.0128%. As for `CC(=O)N1CCC(N2CCOC[C@H]2c2nc(-c3cccnc3)c[nH]2)CC1`, the figure is 17.9%; as for `CC(C)(C)CC(=O)NC[C@H]1OC[C@@H](NCc2ccccn2)[C@@H]1O`, -10.1%; as for `O=S(=O)(NC[C@H]1C[C@@H]2CCN1C[C@@H]2CN1CCCCC1)c1ccccc1`, -6.11%. Take `CCN(CC)CC[C@H]1CN(C(=O)C(C)(C)C)CC[C@H]1CC(=O)O`: the cytotoxicity at 70.5 h was -8.97%. The result for `CCNC(=O)N1CC[C@@H](CC(=O)O)[C@@H](CC2=NCCc3ccccc32)C1` reads -2.71%; that for `Cc1cc(O)cc2c(=O)oc(CC(C)O)cc12` (centres undefined), -6.88%; that for `Oc1ccc([C@H]2Oc3cc(O)cc(O)c3C[C@@H]2O)cc1`, -11.9%.

On to `Cc1nc(SCC(=O)Nc2ccc(C(N)=O)cc2)c(C#N)c(C)c1C`, for which the cytotoxicity at 70.5 h was determined as 4.83%.

For `Cc1ccc(-c2noc(C(C)NS(C)(=O)=O)n2)cc1` (centres undefined), the cytotoxicity at 70.5 h was determined as 21.2%. As for `Cc1ccc(-c2ccc(=O)n(CC(=O)Nc3nccs3)n2)cc1`, the figure is -4.07%; as for `CN(C)CCNCC1CCOC(C)(C)C1` (centres undefined), -10.1%. The result for `CCN(CC)CCCNCC1CCOC(C)(C)C1` (centres undefined) reads -3.64%; that for `CCN(CC)CCNc1c(-c2ccccc2)c(=O)c1=O`, -0.107%. As for `COc1ccc(C)cc1NC(=O)c1c(C)cn(C)c1CC(=O)O`, the figure is -11%; as for `COCCCNc1c(-c2ccc(Cl)cc2)c(=O)c1=O`, 6.7%; as for `CN1CCN(c2ccc(NS(=O)(=O)c3ccc(Cl)s3)cc2C(=O)O)CC1`, -2.11%. As to `O=C(c1ccc(N2CCCCCC2)nn1)N1CCc2ccccc21`, the cytotoxicity at 70.5 h is -3.2%. The result for `CC(C)c1nnc(NC(=O)CSCc2cc(=O)n3ccccc3n2)s1` reads -4.94%; that for `Cc1cccc2nc(CSCC(=O)Nc3nnc(C(C)C)s3)cc(=O)n12`, -10.6%. As for `CCCNC(=O)COc1cc(C)c2c(C)nn(-c3ccc(C)cc3)c2n1`, the figure is -2.23%. The result for `Cc1ccn(CCC(=O)NCc2ccco2)n1` reads 0.885%; that for `COc1ccccc1N1CCN(C(=O)CCn2ccc(C)n2)CC1`, 23.2%.

In the case of `O=C(CCn1cccc1)NCc1ccc(CN2CCCCCC2)o1`, the cytotoxicity at 70.5 h was 0.95%. The result for `CCCNC(=O)COc1cc(C)c2c(C)nn(-c3ccccc3)c2n1` reads -4.53%; that for `Cc1ccc(NC(=O)c2ccc(=O)n(CC(=O)NC3CCCC3)n2)cc1`, 4.71%; that for `CCOCc1nc(N2CCCC2)sc1C(=O)NCc1ccco1`, -5.28%. The result for `CCOCCCNC(=O)C1(C)CCC(=O)N1c1ccccc1F` (centres undefined) reads -3.95%; that for `CCOCCCNC(=O)C1(C)CCC(=O)N1c1ccccc1OC` (centres undefined), -8.49%.

As for `CC(=O)N1CCC2(C=C(C(=O)NC3CC3)c3ccccc32)CC1`, the cytotoxicity at 70.5 h is -13.7%. In the case of `CN(C)C[C@@H]1C[C@@H]2CN(C(=O)Cc3cccs3)CC[C@@H]2N1C`, the cytotoxicity at 70.5 h amounted to 13.4%. Take `C[C@@H]1CN(C(=O)Cc2ccsc2)C[C@]12CCN(CCN(C)C)C2=O`: the cytotoxicity at 70.5 h was -10.3%. The result for `CCN1CCOCC2(CCCN(C(=O)c3cccc(O)c3)C2)C1` (centres undefined) reads -6.13%; that for `Cc1cc(-c2cnn(CCNC(=O)C3CC3)c2C2CC2)on1`, 27%; that for `Cn1ccnc1CN1CCOCC(Cc2ccccn2)C1` (centres undefined), -12.6%. The result for `O=S(=O)(c1ccccc1Cl)N1CCc2nc(C3CCNCC3)ncc2C1` reads -3.67%.

For `CCC(=O)N1CCC(O)(c2ncc(OC)nc2OC)CC1`, the cytotoxicity at 70.5 h is -12.8%. The result for `O=C(c1ccc(F)cc1F)N1CC[C@H](O)[C@@H](N2CCOCC2)CC1` reads -13.9%; that for `CC(C)(N)C(=O)N1CCCC1c1cncc(Oc2ccc(F)cc2)n1` (centres undefined), 0.148%; that for `CCC(=O)N1CCC(Cc2nccnc2Nc2ccccn2)CC1`, 20.4%. The result for `COc1cccc(OC)c1CN1CCC2(CC(Nc3ccncn3)C2)C1` (centres undefined) reads -9.12%.

On to `NC[C@H]1CC[C@H](C(NC(=O)c2ccccc2)c2ccccn2)CC1` (some centres undefined), for which the cytotoxicity at 70.5 h came out at 11.1%. In the case of `Cn1cc(C(=O)N2CCC(Cc3nccs3)CC2)cn1`, the cytotoxicity at 70.5 h came to 22.3%.

As for `CC(=O)N1CCCC1c1csc(Nc2cnccn2)n1` (centres undefined), the cytotoxicity at 70.5 h is -4.91%.

In the case of `CC(=O)N1CCCC1c1cc(N2CCN(C3CCCC3)CC2)cc(C)n1` (centres undefined), the cytotoxicity at 70.5 h was -7.01%. For `Cc1nc(-c2ccc(C(=O)O)cc2)cc(C2CCN(C(C)C)C2)n1` (centres undefined), the cytotoxicity at 70.5 h was -9.52%.

As for `Cc1cc(C(=O)N[C@H](C)c2onc(C)c2C(=O)O)c(C)o1`, the cytotoxicity at 70.5 h was -4.02%. The result for `Cc1noc([C@@H](C)NCc2cccc(Cl)c2)c1C(=O)O` reads 2.52%; that for `CC(=O)NC[C@@]1(COc2cnccn2)C[C@@H](O)[C@@H](O)C1`, -3.14%.

With `O=C1CC2(CCNCC2)C(=O)N1Cc1ccc(F)cc1`, the cytotoxicity at 70.5 h is 29.9%. Turning to `Fc1ccc(CN2CCC(c3n[nH]c4ncccc34)CC2)cc1F`, the cytotoxicity at 70.5 h is 22.2%. As for `CCC(=O)N1C[C@@H]2CCN(c3cnccn3)C[C@@H]2C1`, the figure is 35.4%; as for `O=C(NCC1CC1)C1CCC2(CCN(C(=O)c3ccncc3)CC2)O1` (centres undefined), 10.5%; as for `COCCN1CCC2(CCCN(Cc3ccoc3)C2)C1=O` (centres undefined), 12.2%. For the compound `O=C(c1ccc(F)cc1)N1CCC2(CC1)CC(N1CCOCC1)C2`, the cytotoxicity at 70.5 h was -13.1%. As for `O=C1C[C@H]2[C@@H](CCN2C(=O)Cc2ccsc2)N1Cc1cccnc1`, the figure is -3.76%; as for `CN1[C@@H](C(=O)NCC2CC2)C[C@H]2CN(Cc3ccsc3)C[C@H]21`, 12.6%. The result for `CN1[C@H](CN2CCCC2)C[C@@H]2CN(C(=O)Cc3ccsc3)CC[C@@H]21` reads -10.6%. As for `Cc1cccc(CN2C(=O)C[C@H]3[C@@H]2CCN3Cc2nccs2)n1`, the figure is -22.3%; as for `COc1cc(C2CC(=O)c3c(O)cc(O)cc3O2)ccc1O` (centres undefined), -8.7%.
